Measured values reported in patent US11517597B2, “Method for improving skin condition with postbiotic extract” (CHAMBIO CO., LTD., priority 2020, dated 2022).

Tests used:
[1] = tested on: Hs68 cells; assay: TGF-β content of Hs68 cells (ELISA); assay type: cell-based, Human; details: 24 hours
Protocol: (§1) • 2. Human foreskin fibroblast cell line Hs68 was purchased from the Bioresource Collection and Research Center of the Food Industry Research and Development Institute (BCRC of FIRDI, Taiwan). Hs68 cells were grown in a 10-cm Petri dish containing Dulbecco's Modified Eagle's Medium (DMEM) (Thermo Fisher Scientific) supplemented with 10% fetal bovine serum (FBS). The Hs68 cells were cultivated in an incubator with culture conditions set at 37° C. and 5% CO2. Medium change was performed every two to three days. Cell passage was performed when the cultured cells reached 80%-90% of confluence. • 3.
General Procedures: • 1. Determination of transforming growth factor-β (TGF-β) content
The TGF-β content was determined using an enzyme-linked immunosorbent assay (ELISA) kit (Cat. No. 559119, BD Biosciences) in accordance with the manufacturer's instructions.
(§2) Hs68 cells were divided into 25 groups, including one control group, twelve comparative groups (i.e., comparative groups L-1 to L-6 and B-1 to B-6), and twelve experimental groups (i.e., experimental groups L-1 to L-6 and B-1 to B-6). Each group of the Hs68 cells was incubated in a respective well of a 96-well culture plate containing 200 μL of DMEM at 1×10^4 cells/well, followed by cultivation in an incubator (37° C., 5% CO2) for 24 hours. […] The cell culture of the control group received no treatment.
After cultivation in an incubator (37° C., 5% CO2) for 24 hours, the respective resultant cell culture was subjected to the determination of TGF-β content according to the method described in section 1 of “General Procedures”.
(§3) Hs68 cells were divided into 28 groups, including fourteen comparative groups (i.e., comparative groups 1 L to 7 L and 1H to 7H) and fourteen experimental groups (i.e., experimental groups 1 L to 7 L and 1B to 7B). Each group of the Hs68 cells was incubated in a respective well of a 96-well culture plate containing 200 μL of DMEM at 1×10^4 cells/well, followed by cultivation in an incubator (37° C., 5% CO2) for 24 hours.

[2] = tested on: Hs68 cells; assay: Proliferation of Hs68 cells (MTT, OD570 converted to cell number); assay type: cell-based, Human; details: 24 hours
Protocol: as §1
as §2, with “3” for “25”, “group” for “group, twelve comparative groups (i.e., comparative groups L-1 to L-6”, “two” for “B-1 to B-6), and twelve”, “L” for “L-1 to L-6”, “B).” for “B-1 to B-6).”
After cultivation in an incubator (37° C., 5% CO2) for 24 hours, the respective resultant cell culture was stained with 3-(4,5-Dimethylthiazol-2-yl)-2,5-diphenyltetrazolium bromide (MTT), followed by subjecting the stained cells to determination of absorbance at a wavelength of 570 nm by a spectrophotometer. The OD570 values obtained were subsequently converted to cell numbers based on a correlation curve previously prepared by plotting different known cell numbers of Hs68 cells versus their OD570 values.
as §3
After cultivation in an incubator (37° C., 5% CO2) for 24 hours, the cell number of each group was determined according to the method described in section C of this example. The fold increase of viable cells was calculated using the following Equation (II): C=D/E (II) where C=fold increase of viable cells • D=cell number of respective experimental group or comparative group • E=cell number of corresponding comparative group 1 L, 2 L, 3 L, 4 L, 5 L, 6 L, or 7 L

[3] = nutritional component only 100 mg/L
[4] = nutritional component only 200 mg/L
[5] = nutritional component only 100 mg/L (the reference group of Equation II)
[6] = nutritional component only 200 mg/L, relative to 100 mg/L group

## N[C@H]1C(O)O[C@H](CO)[C@@H](O)[C@@H]1O (stereo partly drawn) [Glucosamine]
[1]; [3]
  TGF-β content: 51.1 pg/mL
[1]; [4]
  TGF-β content: 61.3 pg/mL
[2]; [5]
  Fold increase of viable Cells: 1.0
[2]; [6]
  Fold increase of viable Cells: 1.1

## O=C1O[C@H]([C@@H](O)CO)C(O)=C1O [Vitamin C]
[1]; [3]
  TGF-β content: 52.2 pg/mL
[1]; [4]
  TGF-β content: 63.1 pg/mL
[2]; [5]
  Fold increase of viable Cells: 1.0
[2]; [6]
  Fold increase of viable Cells: 1.1

## Chondroitin
[1]; [3]
  TGF-β content: 120.5 pg/mL
[1]; [4]
  TGF-β content: 128.8 pg/mL
[2]; [5]
  Fold increase of viable Cells: 1.0
[2]; [6]
  Fold increase of viable Cells: 1.1
